Active and inactive are the calls of the source.
Experiments:
[1] = molecular target: T1, Kappa-type opioid receptor (Homo sapiens, UniProt P41145); assay type: functional
[2] = molecular target: Nucleotide-binding oligomerization domain-containing protein 2 (Homo sapiens, UniProt Q9HC29); experiment: NOD2 signaling inhibitors, cell-based, luminescence, uHTS, HEK293 (AID 1566); assay type: functional
HEK293 [3] = experiment: NOD2 signaling inhibitors in MDP-stimulated cells, cell-based, uHTS, luminescence (AID 2001); assay type: functional; conditions: Homo sapiens
HEK293 [4] = experiment: cells; assay type: functional, cell-based; conditions: Homo sapiens
BJ [5] = experiment: cytotoxicity toward BJ-TERT-LT-ST fibroblasts, dose response, cell-based, RAS-independent, luminescence (AID 1935); assay type: functional; conditions: Homo sapiens;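 note: BJ fibroblasts immortalized with TERT plus LT and ST oncogenes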
[6] = molecular target: Heat shock protein HSP 90-alpha (Homo sapiens, UniProt P07900); assay type: functional, organism-based
Streptococcus = experiment: Group A Streptococcus viability loss, dose response, counter-screen for streptokinase expression inhibitor project, luminescence, BacTiterGlo (AID 1915); assay type: functional, organism-based;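 note: potency for reduction of bacterial viability or growth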
Beta-galactosidase = Beta-galactosidase (Escherichia coli, UniProt Q8VNN2); assay type: functional
Beta-galactosidase, sequence (Q8VNN2 whole entry): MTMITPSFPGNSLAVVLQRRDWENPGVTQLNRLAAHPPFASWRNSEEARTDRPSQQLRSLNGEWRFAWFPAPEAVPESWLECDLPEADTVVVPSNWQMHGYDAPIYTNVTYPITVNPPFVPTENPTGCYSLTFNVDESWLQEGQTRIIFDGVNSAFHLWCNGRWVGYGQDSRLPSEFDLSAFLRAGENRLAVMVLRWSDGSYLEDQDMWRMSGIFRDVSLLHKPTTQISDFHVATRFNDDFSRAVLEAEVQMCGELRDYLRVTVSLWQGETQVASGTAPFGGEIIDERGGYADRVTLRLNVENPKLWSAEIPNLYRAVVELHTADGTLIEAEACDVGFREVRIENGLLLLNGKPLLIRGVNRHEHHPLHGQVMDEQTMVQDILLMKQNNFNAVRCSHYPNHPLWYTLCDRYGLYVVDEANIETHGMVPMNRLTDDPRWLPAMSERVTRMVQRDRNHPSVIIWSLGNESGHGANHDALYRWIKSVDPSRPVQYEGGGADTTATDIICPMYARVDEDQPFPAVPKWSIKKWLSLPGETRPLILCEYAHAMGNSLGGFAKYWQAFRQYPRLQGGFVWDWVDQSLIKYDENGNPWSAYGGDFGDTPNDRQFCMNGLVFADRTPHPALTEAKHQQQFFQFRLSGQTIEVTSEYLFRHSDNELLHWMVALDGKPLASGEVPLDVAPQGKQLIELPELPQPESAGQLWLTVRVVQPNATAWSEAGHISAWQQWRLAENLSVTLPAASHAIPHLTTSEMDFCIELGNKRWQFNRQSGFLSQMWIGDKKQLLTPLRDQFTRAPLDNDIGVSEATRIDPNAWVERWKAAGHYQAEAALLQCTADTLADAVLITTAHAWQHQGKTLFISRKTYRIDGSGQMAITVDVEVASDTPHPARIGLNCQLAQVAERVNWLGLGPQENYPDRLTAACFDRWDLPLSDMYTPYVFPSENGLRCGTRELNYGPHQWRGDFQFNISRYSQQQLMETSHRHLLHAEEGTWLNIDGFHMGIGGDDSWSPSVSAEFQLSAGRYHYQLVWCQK

HEK293 [7] = experiment: cells; assay type: functional, cell-based; conditions: Homo sapiens; remark: listed apart in the source
[8] = molecular target: T1, Kappa-type opioid receptor; assay type: functional; remark: listed apart in the source
BJ [9] = experiment: cells; assay type: functional, cell-based; conditions: Homo sapiens
[10] = C. albicans growth with fluconazole, confirmation, fluorescence, retest (AID 2467); assay type: functional, cell-based
[11] = NIH-3T3 fibroblast cytotoxicity, dose response, cytotoxicity control, cell-based, fluorescence, Alamar Blue, secondary assay (AID 2327); assay type: functional;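 note: NIH-3T3 mouse fibroblasts cultured with fluconazole at 8 µg/mL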
HEK293 [12] = experiment: cells; assay type: functional, cell-based; conditions: Homo sapiens; remark: listed apart in the source
[13] = tested on: Streptococcus sp. 'group A'; experiment: growth inhibition of control SK(-) GAS strain, dose response, counter-screen for streptokinase expression inhibitor project, luminescence, kanamycin, BacTiterGlo, confirmation (AID 1900); assay type: functional, organism-based
INS1 = experiment: beta cell apoptosis inhibitors, cytokine rescue, dose response, luminescence, retest (AID 449756); assay type: functional, cell-based; conditions: Rattus norvegicus;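 note: cell death triggered by IL-1 beta plus TNF-alpha plus IFN-gamma mixture; protective hits raise ATP signal compared with cytokine alone wells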
[14] = molecular target: T2, Serine/threonine-protein phosphatase (Candida dubliniensis (strain CD36 / CBS 7987 / NCPF 3949 / NRRLY-17841) (Yeast), UniProt B9W6M3); experiment: calcineurin pathway inhibitors in yeast reporter, dose response, S. cerevisiae, CDRE-lacZ, luminescence, secondary (AID 2388); assay type: functional, cell-based;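 note: yeast reporter cells carrying a calcineurin-responsive lacZ construct stimulated with calcium chloride; luminescent beta-galactosidase reporter signal in whole cells rather than isolated phosphatase activity; potency for inhibition where a drop in reporter signal means calcineurin blockade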
T2 sequence (B9W6M3 whole entry): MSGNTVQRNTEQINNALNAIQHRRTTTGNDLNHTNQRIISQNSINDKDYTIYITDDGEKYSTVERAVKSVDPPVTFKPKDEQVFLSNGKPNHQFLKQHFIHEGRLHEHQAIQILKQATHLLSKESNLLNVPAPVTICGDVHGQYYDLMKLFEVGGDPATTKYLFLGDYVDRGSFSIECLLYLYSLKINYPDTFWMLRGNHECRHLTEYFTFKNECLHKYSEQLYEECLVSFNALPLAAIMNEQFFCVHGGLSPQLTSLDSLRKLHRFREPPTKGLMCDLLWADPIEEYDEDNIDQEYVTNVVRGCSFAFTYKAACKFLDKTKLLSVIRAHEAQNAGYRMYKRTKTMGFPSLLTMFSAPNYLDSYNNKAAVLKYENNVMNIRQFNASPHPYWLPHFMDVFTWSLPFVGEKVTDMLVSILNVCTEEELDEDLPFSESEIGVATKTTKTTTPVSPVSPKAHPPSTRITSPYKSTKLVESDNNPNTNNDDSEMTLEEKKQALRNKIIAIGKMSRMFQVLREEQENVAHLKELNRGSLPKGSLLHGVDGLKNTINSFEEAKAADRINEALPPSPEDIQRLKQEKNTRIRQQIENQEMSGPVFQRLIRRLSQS

[15] = cytotoxicity toward DRD oncogenic fibroblasts, dose response, cell-based, non-viral oncogenic, luminescence (AID 1934); assay type: functional; conditions: Homo sapiens
BJ [16] = experiment: cytotoxicity toward BJ-TERT fibroblasts, dose response, cell-based, RAS-independent, luminescence (AID 1933); assay type: functional; conditions: Homo sapiens
HEK293 [17] = experiment: NOD1 signaling inhibitors, primary screen, cell-based, luminescence, uHTS (AID 1578); assay type: functional; conditions: Homo sapiens
[18] = molecular target: ATP-dependent molecular chaperone HSP82 (Candida albicans (strain WO-1) (Yeast), UniProt C4YTQ8); experiment: loss of DOC-induced GRE-beta-galactosidase reporter signal, dose response, Hsp90 inhibitor project, S. cerevisiae, luminescence (AID 2400); assay type: functional, cell-based;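 note: beta-galactosidase luminescence from glucocorticoid response element reporter as proxy for Hsp90 function; inhibitor potency where signal loss means Hsp90 inhibition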
ATP-dependent molecular chaperone HSP82, sequence (C4YTQ8 whole entry): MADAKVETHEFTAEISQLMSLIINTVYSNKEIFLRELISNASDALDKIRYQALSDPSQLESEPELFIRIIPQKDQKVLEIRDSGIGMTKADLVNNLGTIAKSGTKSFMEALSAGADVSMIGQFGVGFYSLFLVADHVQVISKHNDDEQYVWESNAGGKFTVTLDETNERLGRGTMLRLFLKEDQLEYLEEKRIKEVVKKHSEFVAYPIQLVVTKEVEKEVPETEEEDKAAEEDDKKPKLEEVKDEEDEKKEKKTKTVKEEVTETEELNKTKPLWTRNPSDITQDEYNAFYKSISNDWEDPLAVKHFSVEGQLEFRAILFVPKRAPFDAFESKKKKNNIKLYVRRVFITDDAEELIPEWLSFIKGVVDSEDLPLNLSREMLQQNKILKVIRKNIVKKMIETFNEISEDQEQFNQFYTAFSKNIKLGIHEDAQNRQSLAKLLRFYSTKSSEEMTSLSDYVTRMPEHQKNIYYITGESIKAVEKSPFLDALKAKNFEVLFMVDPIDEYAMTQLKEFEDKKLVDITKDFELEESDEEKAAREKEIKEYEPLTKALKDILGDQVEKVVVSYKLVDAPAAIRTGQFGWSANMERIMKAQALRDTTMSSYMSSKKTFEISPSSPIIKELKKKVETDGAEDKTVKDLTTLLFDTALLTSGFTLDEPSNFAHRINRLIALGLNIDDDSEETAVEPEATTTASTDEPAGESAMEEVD

[19] = insulin promoter down-regulators in MIN6 cells, imaging, high-content screening, mouse beta cells (AID 1628); assay type: functional
[20] = cytotoxicity in MIN6 insulinoma cells, dose response, cytotoxicity control, cell-based, mouse insulinoma (AID 2122); assay type: functional;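 note: confirmatory high-throughput counterscreen run to flag cytotoxic compounds; mouse MIN-6 beta cells carrying an insulin promoter eGFP reporter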
[21] = HEK293T cytotoxicity, dose response, cytotoxicity control for miR-122 modulator project, cell-based, inhibitor set, cherry-pick, set 2 (AID 720697); assay type: functional
[22] = miR-122 activators in hepatoma reporter cells, dose response, cell-based, Huh7 psiCHECK-miR122, Renilla luciferase, cherry-picked (AID 651956); assay type: functional;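 note: huh7 hepatoma cells stably carrying a psiCHECK-2 miR-122 sensor plasmid; renilla luciferase signal reporting endogenous miR-122 activity after 48 h compound exposure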
[23] = molecular target: T3, COUP transcription factor 2 (Homo sapiens, UniProt P24468); experiment: Luminescence-based cell-based high throughput dose response assay to identify inhibitors of COUP-TFII (NR2F2).; assay type: functional;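 note: HEK293 cells transiently cotransfected with COUP-TFII expression vector and reporter; luciferase reporter luminescence driven by COUP-TFII from the pX2-168 reporter plasmid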
T3 sequence (P24468 whole entry): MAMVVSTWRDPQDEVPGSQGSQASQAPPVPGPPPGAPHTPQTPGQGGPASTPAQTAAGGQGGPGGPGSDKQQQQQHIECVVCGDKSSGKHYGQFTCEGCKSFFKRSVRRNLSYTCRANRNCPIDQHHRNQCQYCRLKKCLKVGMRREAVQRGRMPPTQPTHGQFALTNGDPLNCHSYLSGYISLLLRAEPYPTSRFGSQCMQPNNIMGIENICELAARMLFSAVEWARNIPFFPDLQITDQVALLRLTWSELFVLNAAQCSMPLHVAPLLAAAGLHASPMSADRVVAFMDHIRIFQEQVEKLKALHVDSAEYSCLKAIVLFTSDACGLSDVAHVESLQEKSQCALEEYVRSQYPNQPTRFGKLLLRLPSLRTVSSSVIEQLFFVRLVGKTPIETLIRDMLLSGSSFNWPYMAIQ

[24] = cytotoxicity in HEK-293T cells, dose response, cytotoxicity control for TCR NF-kB inhibitor project, luminescence, T-cell screen hits (AID 489026); assay type: functional, cell-based;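 note: cells exposed to compound about 14 hours before the viability readout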
Escherichia coli = experiment: microbe, parasite or virus in culture
[25] = molecular target: DNA dC->dU-editing enzyme APOBEC-3G (Homo sapiens, UniProt Q9HC16); assay type: functional;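 note: Dose-response counterscreen measuring inhibition of APOBEC3G DNA deaminase activity, run while confirming APOBEC3A inhibitors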
DNA dC->dU-editing enzyme APOBEC-3G, sequence (Q9HC16 whole entry): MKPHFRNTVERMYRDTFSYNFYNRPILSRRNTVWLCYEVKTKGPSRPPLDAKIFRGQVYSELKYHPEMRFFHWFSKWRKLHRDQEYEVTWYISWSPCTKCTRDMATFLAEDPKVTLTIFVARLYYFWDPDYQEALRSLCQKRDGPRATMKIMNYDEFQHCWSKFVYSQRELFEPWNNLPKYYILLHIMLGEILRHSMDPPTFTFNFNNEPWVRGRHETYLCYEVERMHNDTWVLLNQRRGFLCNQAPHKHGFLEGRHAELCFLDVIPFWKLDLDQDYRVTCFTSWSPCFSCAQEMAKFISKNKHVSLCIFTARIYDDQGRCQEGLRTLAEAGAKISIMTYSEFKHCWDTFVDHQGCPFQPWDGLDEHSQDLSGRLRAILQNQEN

[26] = molecular target: SWI/SNF-related matrix-associated actin-dependent regulator of chromatin subfamily A member 2 (Homo sapiens, UniProt P51531); experiment: Luminescence-based cell-based high throughput dose response assay to identify activators of the function of SWI/SNF related, matrix associated, actin dependent regulator of chromatin, subfamily a, member 2 (SMARCA2, BRM).; assay type: functional
SWI/SNF-related matrix-associated actin-dependent regulator of chromatin subfamily A member 2, sequence (P51531 whole entry, the tested form may be a part): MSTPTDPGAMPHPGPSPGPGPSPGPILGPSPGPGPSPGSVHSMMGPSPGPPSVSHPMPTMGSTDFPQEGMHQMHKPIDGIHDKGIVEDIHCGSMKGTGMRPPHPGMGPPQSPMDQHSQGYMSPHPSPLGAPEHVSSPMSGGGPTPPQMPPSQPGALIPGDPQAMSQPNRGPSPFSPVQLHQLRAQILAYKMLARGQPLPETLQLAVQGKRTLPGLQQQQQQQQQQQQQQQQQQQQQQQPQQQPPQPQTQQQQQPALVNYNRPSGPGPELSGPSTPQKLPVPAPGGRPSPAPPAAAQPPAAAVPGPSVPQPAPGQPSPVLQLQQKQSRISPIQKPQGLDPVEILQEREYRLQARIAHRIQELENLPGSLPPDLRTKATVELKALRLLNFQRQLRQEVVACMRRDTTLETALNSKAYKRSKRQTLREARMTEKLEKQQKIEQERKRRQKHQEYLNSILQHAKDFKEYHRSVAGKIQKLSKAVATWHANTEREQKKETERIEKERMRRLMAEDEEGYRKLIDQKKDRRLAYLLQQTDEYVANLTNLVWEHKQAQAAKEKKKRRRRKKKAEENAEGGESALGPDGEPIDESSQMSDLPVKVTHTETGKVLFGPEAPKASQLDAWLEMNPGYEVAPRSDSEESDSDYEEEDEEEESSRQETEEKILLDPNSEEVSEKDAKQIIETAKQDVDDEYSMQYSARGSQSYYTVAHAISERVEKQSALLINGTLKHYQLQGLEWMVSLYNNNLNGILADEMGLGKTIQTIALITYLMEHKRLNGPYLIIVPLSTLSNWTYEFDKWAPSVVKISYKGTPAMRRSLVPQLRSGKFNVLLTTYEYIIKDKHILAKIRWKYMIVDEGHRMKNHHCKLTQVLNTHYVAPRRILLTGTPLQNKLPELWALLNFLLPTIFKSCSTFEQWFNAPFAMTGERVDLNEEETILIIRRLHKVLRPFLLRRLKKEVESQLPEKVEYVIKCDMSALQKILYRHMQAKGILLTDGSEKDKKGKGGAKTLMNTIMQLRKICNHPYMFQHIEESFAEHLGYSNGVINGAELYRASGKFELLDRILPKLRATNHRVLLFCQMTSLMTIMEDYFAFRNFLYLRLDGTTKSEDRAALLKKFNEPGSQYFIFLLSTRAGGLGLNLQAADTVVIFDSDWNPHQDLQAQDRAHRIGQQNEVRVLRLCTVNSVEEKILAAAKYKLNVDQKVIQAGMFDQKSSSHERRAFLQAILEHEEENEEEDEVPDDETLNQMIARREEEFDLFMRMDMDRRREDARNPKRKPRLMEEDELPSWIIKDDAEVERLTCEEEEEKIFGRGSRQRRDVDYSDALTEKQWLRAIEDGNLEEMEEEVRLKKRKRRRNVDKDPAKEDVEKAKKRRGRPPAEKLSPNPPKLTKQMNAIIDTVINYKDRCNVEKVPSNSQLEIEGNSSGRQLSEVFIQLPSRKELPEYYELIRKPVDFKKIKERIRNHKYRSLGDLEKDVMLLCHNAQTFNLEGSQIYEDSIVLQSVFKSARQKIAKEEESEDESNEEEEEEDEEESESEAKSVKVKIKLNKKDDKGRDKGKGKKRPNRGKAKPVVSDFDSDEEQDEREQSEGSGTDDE

[27] = molecular target: T4, RNA-binding protein pos-1 (Caenorhabditis elegans, UniProt G5EF15); experiment: inhibitors of POS-1/mex-3 RNA binding, dose response, biochemical, fluorescence polarization (AID 1964);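 note: purified POS-1 fused to maltose binding protein made in E. coli; potency of compounds blocking POS-1 binding to fluorescent RNA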
T4 sequence (G5EF15 whole entry): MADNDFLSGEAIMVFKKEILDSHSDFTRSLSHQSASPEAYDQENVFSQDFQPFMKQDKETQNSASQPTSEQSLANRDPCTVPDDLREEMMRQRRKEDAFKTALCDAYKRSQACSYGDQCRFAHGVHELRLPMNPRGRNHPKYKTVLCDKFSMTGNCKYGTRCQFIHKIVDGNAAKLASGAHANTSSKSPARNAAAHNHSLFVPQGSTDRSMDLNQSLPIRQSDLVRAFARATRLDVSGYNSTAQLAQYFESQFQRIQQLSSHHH

[28] = molecular target: T5, Zinc finger protein mex-5 (Caenorhabditis elegans, UniProt Q9XUB2); experiment: MEX-5/TCR-2 RNA interaction inhibitors, dose response, biochemical, C. elegans, fluorescence polarization (AID 1960)
T5 sequence (Q9XUB2 whole entry): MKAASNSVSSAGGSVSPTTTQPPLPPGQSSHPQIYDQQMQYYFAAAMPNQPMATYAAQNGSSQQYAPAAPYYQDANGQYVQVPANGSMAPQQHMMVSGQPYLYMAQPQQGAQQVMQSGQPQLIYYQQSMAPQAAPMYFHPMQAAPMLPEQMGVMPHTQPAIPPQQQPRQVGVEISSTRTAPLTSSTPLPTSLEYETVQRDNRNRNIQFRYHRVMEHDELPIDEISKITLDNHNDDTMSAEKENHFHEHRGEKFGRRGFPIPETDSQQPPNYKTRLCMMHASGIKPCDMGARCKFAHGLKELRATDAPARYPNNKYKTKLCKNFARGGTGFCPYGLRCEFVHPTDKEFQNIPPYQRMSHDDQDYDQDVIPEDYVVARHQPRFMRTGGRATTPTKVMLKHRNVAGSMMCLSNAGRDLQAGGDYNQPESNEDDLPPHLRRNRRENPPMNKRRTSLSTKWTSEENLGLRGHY

[29] = molecular target: DNA dC->dU-editing enzyme APOBEC-3A (Homo sapiens, UniProt P31941); experiment: Dose Response confirmation of small molecule APOBEC3A DNA Deaminase Inhibitors via a fluorescence-based single-stranded DNA deaminase assay. [Related pubchem assays (depositor defined):AID493011, AID493024]; assay type: functional
DNA dC->dU-editing enzyme APOBEC-3A, sequence (P31941 whole entry): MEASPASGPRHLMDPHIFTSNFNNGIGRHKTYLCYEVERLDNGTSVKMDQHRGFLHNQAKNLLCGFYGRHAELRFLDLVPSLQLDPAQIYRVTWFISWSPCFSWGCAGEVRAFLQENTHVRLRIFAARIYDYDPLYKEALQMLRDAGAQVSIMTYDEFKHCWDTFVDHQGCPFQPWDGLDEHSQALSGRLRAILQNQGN

[30] = Counterscreen for activators of the function of SWI/SNF related, matrix associated, actin dependent regulator of chromatin, subfamily a, member 2 (SMARCA2, BRM): Luminescence-based cell-based high throughput dose response assay to identify non-selective compounds using the VP16 reporter assay.; assay type: functional

T1 sequence (P41145 whole entry, the tested form may be a part): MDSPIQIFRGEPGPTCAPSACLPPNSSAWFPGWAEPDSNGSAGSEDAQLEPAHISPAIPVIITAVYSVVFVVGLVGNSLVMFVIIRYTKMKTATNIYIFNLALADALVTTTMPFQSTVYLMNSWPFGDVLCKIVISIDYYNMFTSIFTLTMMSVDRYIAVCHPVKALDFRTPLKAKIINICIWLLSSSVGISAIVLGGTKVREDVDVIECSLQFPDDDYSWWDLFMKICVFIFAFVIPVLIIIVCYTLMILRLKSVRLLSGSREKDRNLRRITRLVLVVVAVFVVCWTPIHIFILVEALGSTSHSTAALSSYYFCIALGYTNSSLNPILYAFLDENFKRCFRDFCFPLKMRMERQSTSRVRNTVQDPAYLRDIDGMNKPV

What does the source list for `COc1cccc(N=Nc2ccc3cccnc3c2O)c1`?
IC50 [1]: 5.92 µM (active); EC50 [2]: > 20 µM (inactive); IC50 (HEK293 [3]): 3.15 µM (inactive); IC50 (HEK293 [4]): 5.21 µM (active); EC50 (BJ [5]): 3.73 µM (inconclusive); AC50 [6]: 5.71 µM (active); EC50 (Streptococcus): 2.53 µM (active); EC50 (Beta-galactosidase): 22 µM (active); IC50 (HEK293 [7]): > 20 µM (inactive); IC50 [8]: > 32 µM; EC50 (BJ [9]): 16.9 µM (inconclusive); EC50 [10]: 0.619 µM (active); EC50 [11]: 87.8 µM (active); IC50 (HEK293 [12]): > 20 µM (inactive); EC50 [13]: 0.068 µM (active); AC50 (INS1): 2.26 µM (active); EC50 [14]: > 180 µM (inactive); EC50 [15]: 10.5 µM (active); EC50 (BJ [16]): 6.69 µM (inconclusive); EC50 (HEK293 [17]): > 20 µM (inactive); EC50 [18]: 4.9 µM (active)

Which IC50 [19] does the source give for `COc1cc(-c2nnc3sc(C4CCCCC4)nn23)cc(OC)c1OC` here?
Its IC50 is 0.981 µM (active).

What about the IC50 [20] of the same molecule?
The IC50 was 9.75 µM (active).

What about the AC50 [21] of the same molecule?
The AC50 was 1.08 µM (active).

What about the AC50 [22] of the same molecule?
The AC50 was 55.5 µM (active).

Which results are given for `CCCCn1c2c(c(=N)c3c1CCC3)CCC2`?
IC50 [19]: 1.47 µM (active); IC50 [20]: 1.97 µM (active); IC50 [23]: 19.1 µM (inactive); IC50 [24]: > 80 µM (inactive)

With `COCCn1c(-c2cccc([N+](=O)[O-])c2)nc2c1c(=O)[nH]c(=O)n2Cc1ccccc1` as the molecule, how does the AC50 (Escherichia coli) read?
The AC50 was > 380 µM (inactive).

For `CCSc1nnc(-c2ccc(C)cc2)c2ccccc12`, which EC50 [10] is on record?
Its EC50 is 0.305 µM (active).

What about the EC50 [11] of the same molecule?
Its EC50 is 17.2 µM (active).

What about the EC50 [14] of the same molecule?
Its EC50 is 24.7 µM (active).

What about the EC50 [18] of the same molecule?
Its EC50 is 62.4 µM (active).

Which results are given for `Cc1ccc(N=Nc2[nH]c3ccccc3c2O)cc1`?
IC50 [25]: 7.69 µM (active); EC50 [26]: > 91.1 µM (inactive); EC50 [27]: 16 µM (active); EC50 [28]: 25.7 µM (inconclusive); IC50 [29]: 4.8 µM (active); EC50 [30]: > 91.1 µM (inactive)

Which IC50 [19] does the source give for `Cc1nnc(C)c2c(C)n(C(C)c3ccccc3)c(C)c12` (stereo not drawn) here?
The IC50 was 2.5 µM (active).

And the IC50 [20]?
The IC50 was 2.6 µM (active).

For `CCO/C(O)=C1\C(C)=NC(=S)NC1c1cc(C)sc1C` (stereo not drawn), which AC50 (Escherichia coli) is on record?
Its AC50 is 147 µM (active).

Reference: ChEMBL document CHEMBL1201862, “PubChem BioAssay data set” (2004)
